#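 Interpolation was linear, between the two tested concentrations surrounding the appropriate level; five concentrations were tested over 48 hours in 96-well plates. The concentration for 50% growth inhibition is given as GI50.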 Activity calls are given as the source filed them. No stated cut-off is given here; in the data, active = GI50 up to about 1.1 µM and inactive = higher.
# Experiments:
# Test in all cases: NCI-60 cell line screen, 48 h
# [1] = system: ACHN
# [2] = system: OVCAR-8
# [3] = system: IGROV-1
# [4] = system: RXF 393
# [5] = system: CAKI-1
# [6] = system: UO-31
# [7] = system: SNB-75
# [8] = system: KM12
# [9] = system: SK-MEL-2
# [10] = system: NCI/ADR-RES
# [11] = system: TK-10
# [12] = system: COLO 205
# [13] = system: NCI-H23
# [14] = system: SK-MEL-28
# [15] = system: DU-145
# [16] = system: SF-295
# [17] = system: HCT-116
# [18] = system: HT-29
# [19] = system: A549
# [20] = system: OVCAR-5
Compound,GI50 [1],GI50 [2],GI50 [3],GI50 [4],GI50 [5],GI50 [6],GI50 [7],GI50 [8],GI50 [9],GI50 [10],GI50 [11],GI50 [12],GI50 [13],GI50 [14],GI50 [15],GI50 [16],GI50 [17],GI50 [18],GI50 [19],GI50 [20]
CCOC(=O)C1=C(Nc2cccc(OC)c2)OCC1=O,> 100 µM (inactive),> 100 µM (inactive),> 100 µM (inactive),> 100 µM (inactive),> 100 µM (inactive),> 100 µM (inactive),> 100 µM (inactive),> 100 µM (inactive),> 100 µM (inactive),> 100 µM (inactive),> 100 µM (inactive),> 100 µM (inactive),> 100 µM (inactive),> 100 µM (inactive),68.7 µM (inactive),> 100 µM (inactive),> 100 µM (inactive),> 100 µM (inactive),–,–
CC(C)=CC1C(C(=O)Oc2ccccc2C(C)C)C1(C)C (stereo not given),18.4 µM (inactive),31.7 µM (inactive),29.8 µM (inactive),16.9 µM (inactive),32.4 µM (inactive),17.7 µM (inactive),21.3 µM (inactive),18.1 µM (inactive),17.1 µM (inactive),30 µM (inactive),32.8 µM (inactive),–,23.8 µM (inactive),39.1 µM (inactive),40.5 µM (inactive),17.7 µM (inactive),20.8 µM (inactive),16.4 µM (inactive),31.1 µM (inactive),27.1 µM (inactive)
Cc1ccc(NC(=S)C#N)cc1Cl,37.7 µM (inactive),35.7 µM (inactive),17.1 µM (inactive),29.4 µM (inactive),41.3 µM (inactive),–,21.5 µM (inactive),37.8 µM (inactive),35.5 µM (inactive),31 µM (inactive),60.4 µM (inactive),20.9 µM (inactive),33.8 µM (inactive),41.2 µM (inactive),68.9 µM (inactive),26.4 µM (inactive),36.6 µM (inactive),30.1 µM (inactive),23.8 µM (inactive),24.8 µM (inactive)
Cc1c2c(c(C)n1-c1ccccc1)C(=O)N(CCN1CCN(c3cccc(C(F)(F)F)c3)CC1)C2=O,> 100 µM (inactive),76.4 µM (inactive),> 100 µM (inactive),> 100 µM (inactive),84.7 µM (inactive),48.6 µM (inactive),> 100 µM (inactive),30.5 µM (inactive),0.719 µM (active),59.4 µM (inactive),> 100 µM (inactive),17.1 µM (inactive),7.94 µM (inactive),–,> 100 µM (inactive),50.1 µM (inactive),8.36 µM (inactive),10.6 µM (inactive),46.6 µM (inactive),> 100 µM (inactive)
